The values that follow come from patent US6048854A, “2,3-diaminopropionic acid derivative” (Sumitomo Pharmaceuticals Company, Limited, priority 1993, dated 2000).

SMILES strings stand for the structures. pIC50: −log10 of the molar value. Like-named read-outs stand apart in the source and are kept apart here.

One experiment deals with human fibronectin. Briefly: Binding assay of platelet to adhesive protein: fibronectin (receptor binding inhibition). Particulars: Table 4; fixed activated human platelets, 37° C., 60 minutes. On the procedure:
(§1) The blood was taken out from the elbow vein of a normal volunteer, and mixed with 1/10 volume of 3.8% sodium citrate. The blood was centrifuged at 1,000 rpm (150 g) for 10 minutes, and the supernatant is collected as a platelet rich plasma (PRP). The precipitates are centrifuged at 11,000 rpm (6000 g) for two minutes, and the supernatant is collected as a platelet poor plasma (PPP). To PRP is added prostaglandin I2 (PGl2) at a final concentration of 50 ng/ml, and the mixture was centrifuged at 11000 rpm for two minutes to give human platelet. The platelet was activated by washing with 3.8 mM HEPES-buffer (pH 7.4, Tyrode-HEPES buffer) containing 0.14 M sodium chloride, 2.7 mM potassium chloride, 3.7 mM sodium dihydrogen phosphate, 0.98 mM magnesium chloride, 1 mg/ml glucose, 50 ng/ml PGl2 and 0.35% bovine serum albumin (BSA), adding thereto 5 μM epinephrine, and 30 μM ADP (adenosine diphosphate), followed by being allowed to stand at room temperature for five minutes. To the activated platelet was added 0.05% p-formaldehyde, and the mixture was allowed to stand at room temperature for 30 minutes to give the fixed platelet, which was suspended in Tyrode-HEPES buffer to give a platelet suspension of a concentration of 2×10^8 ml^-1.
(§2) Human fibrinogen from which fibronectin was previously removed by passing through gelatin-cepharose, human fibronectin or human vitronectin was diluted with 0.1 M aqueous sodium hydrogen carbonate solution to a concentration of 5 μg/ml, and the protein solution is put into a 96-well microplate at a volume of 200 μl/well. The microplate was allowed to stand at 4° C. overnight. The plate was washed with phosphate buffered saline (PBS), and subjected to blocking with 3% BSA at 37° C. for one hour. To the plate were added a platelet suspension (final concentration, 10^8 ml^-1) and a test compound of various concentrations (total volume, 200 μl/well), and the plate was incubated at 37° C. for 60 minutes. The plate was treated with 1000-fold diluted enzyme (HRP)-labelled anti-mouse IgG polyclonal antibody at 37° C. for 60 minutes, and thereto was added HRP chromogenic substrate (0.1 M phosphate buffer containing 0.4 mg/ml O-phenylenediamine,0.01% hydrogen peroxide, 0.1 M citric acid, pH 5), and reacted at room temperature for 15 minutes. The reaction was terminated by adding thereto 4.5 M sulfuric acid at a volume of 25 μl/well, and the absorbance at 490 nm was measured.

Experiment [1] has as its system platelet aggregation. The experiment is described as follows: Platelet aggregation inhibitory activity (ADP-induced, human platelet rich plasma). It is filed as cell-based. Particulars: Homo sapiens. On the procedure:
The blood was collected from the elbow vein of a normal volunteer with mixing thereof with 1/10 volume of 3.8% sodium citrate, and the blood was centrifuged at 1000 rpm (150 g) for 10 minutes to give the supernatant as platelet rich plasma (PRP). To PRP (200 μl) was added a test compound solution (2 μl), and the mixture was incubated with stirring at 1000 rpm at 37° C. for two minutes, and thereto was added a platelet aggregator, adenosine diphosphate (ADP, 22 μl) at a final concentration of 3 μg/ml. The platelet aggregation activity was determined by nephelometric analysis using a Hematracer (manufactured by Niko Bioscience, Ltd.). The test results of platelet aggregation inhibitory activity are expressed by IC50, which is a concentration of the test compound being required to inhibit the platelet aggregation reaction by 50%.
The compounds of Examples 18 to 70 were tested in the same manner as in Example 17.
The compounds of Examples 72 to 116 were tested in the same manner as in Example 17.

In another experiment the target is T1, human fibrinogen (Homo sapiens, UniProt P05106+P08514).
T1 construct: centrifuged at 11000 rpm for two minutes to give human platelet; from tissue
Briefly: Binding assay of platelet to adhesive protein: fibrinogen (receptor binding inhibition). Particulars: Table 4; fixed activated human platelets, 37° C., 60 minutes. Here is the method: as §1, §2

Another experiment concerns human vitronectin. The experiment is described as follows: Binding assay of platelet to adhesive protein: vitronectin (receptor binding inhibition). The settings on record: Table 4; fixed activated human platelets, 37° C., 60 minutes; read-out: receptor binding inhibition (IC50), Bitronectin. Here is the method:
as §1, §2

For experiment [2], the system named is platelet aggregation. Briefly: Platelet aggregation inhibitory activity (ex vivo) after oral administration. Format: in vivo. Particulars: Cavia porcellus, guinea pig, oral 0.1 mg/kg, ADP 10 μg/ml. Here is the method: A canula for collecting blood was inserted into the left common carotid artery of a guinea pig which was anesthetized with pentobarbital (30 mg/kg, i.p.). The blood (1 ml) was taken with a syringe containing 1/10 volume of 3.8% sodium citrate (Kettin-citrate, manufactured by Kokusai Shiyaku Ltd.), and the platelet aggregation ability thereof was measured (as a value before administration). Then, a test compound was orally administered to the guinea pig at a dose of 0.1 mg/kg in a volume of 5 ml/kg, and the blood was collected periodically likewise at 0.5, 1, 2, 4 and 6 hours after the administration of the test compound, and the platelet aggregation ability thereof was measured.
The determination of the platelet aggregation ability was carried out by turbidimetry using a Hematracer (Niko Bioscience) as follows. That is, the blood was centrifuged at 4500 rpm at room temperature for 10 seconds, and the supernatant was considered as platelet rich plasma (PRP), and the precipitate was centrifuged at 11000 rpm for two minutes and its supernatant was considered as platelet poor plasma (PPP), and the photo-transmittance of the PRP and the PPP was adjusted to 0%, and 100%, respectively. A cubet containing PRP (200 μl) was inserted to a measurement well, and […] at 1000 rpm at 37° C. for two minutes, and thereto was added a platelet aggregator; ADP (adenosine diphosphate, Sigma Ltd., 20 μl, final concentration; 10 μg/ml), and the maximum aggregation rate was measured. From the maximum aggregation rate before the administration of the test compound (MAR control) and the maximum aggregation rate after the administration of the test compound (MAR sample), the platelet aggregation inhibitory rate of each test compound was estimated according to the following equation.
Inhibitory rate (%)=(1-(MAR sample/MAR control))×100
The periodical change in the platelet aggregation inhibitory rate of each test compound at a dose of 0.1 mg/kg of oral administration is shown in Table 5.

The mark [3] stands for this setting: Table 2, same manner as Example 17.
[4] abbreviates: 0.5 hr, read-out: platelet aggregation inhibitory rate (%), 0.5 hr.
Where [5] appears, read: 1 hr, read-out: platelet aggregation inhibitory rate (%), 1 hr.
Where [6] appears, read: 2 hrs, read-out: platelet aggregation inhibitory rate (%), 2 hrs.
The mark [7] stands for this setting: 4 hrs, read-out: platelet aggregation inhibitory rate (%), 4 hrs.
[8] abbreviates: 6 hrs, read-out: platelet aggregation inhibitory rate (%), 6 hrs.
Setting [9] is: Table 3, same manner as Example 17.

T1 sequence (P08514 32-887 limits assumed): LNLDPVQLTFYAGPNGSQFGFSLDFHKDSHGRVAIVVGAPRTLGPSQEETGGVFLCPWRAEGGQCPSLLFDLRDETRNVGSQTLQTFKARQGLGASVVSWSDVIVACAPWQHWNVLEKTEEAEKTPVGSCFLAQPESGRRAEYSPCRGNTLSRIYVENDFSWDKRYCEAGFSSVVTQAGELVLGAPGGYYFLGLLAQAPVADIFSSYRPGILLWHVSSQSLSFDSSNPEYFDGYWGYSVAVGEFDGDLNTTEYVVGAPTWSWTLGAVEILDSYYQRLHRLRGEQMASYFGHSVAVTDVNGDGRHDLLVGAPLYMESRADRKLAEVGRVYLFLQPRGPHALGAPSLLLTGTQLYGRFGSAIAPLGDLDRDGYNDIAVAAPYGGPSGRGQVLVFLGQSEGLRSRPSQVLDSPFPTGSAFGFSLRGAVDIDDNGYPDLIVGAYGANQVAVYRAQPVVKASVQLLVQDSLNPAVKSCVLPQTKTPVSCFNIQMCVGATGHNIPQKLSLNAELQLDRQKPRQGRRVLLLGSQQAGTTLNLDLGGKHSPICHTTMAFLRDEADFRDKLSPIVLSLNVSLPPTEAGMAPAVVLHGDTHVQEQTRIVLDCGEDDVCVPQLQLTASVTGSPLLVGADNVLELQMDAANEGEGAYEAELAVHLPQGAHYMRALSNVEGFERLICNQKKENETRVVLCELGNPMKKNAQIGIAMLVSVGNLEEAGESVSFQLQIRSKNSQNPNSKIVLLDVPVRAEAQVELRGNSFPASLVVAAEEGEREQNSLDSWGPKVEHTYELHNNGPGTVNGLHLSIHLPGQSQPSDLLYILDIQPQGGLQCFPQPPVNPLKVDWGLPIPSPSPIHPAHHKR
T1 sequence (P08514 891-1039 limits assumed): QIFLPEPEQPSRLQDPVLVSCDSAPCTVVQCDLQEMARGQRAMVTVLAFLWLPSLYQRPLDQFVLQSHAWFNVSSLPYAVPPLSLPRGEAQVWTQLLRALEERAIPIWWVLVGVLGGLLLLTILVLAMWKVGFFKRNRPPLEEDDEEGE
T1 sequence (P05106 27-788): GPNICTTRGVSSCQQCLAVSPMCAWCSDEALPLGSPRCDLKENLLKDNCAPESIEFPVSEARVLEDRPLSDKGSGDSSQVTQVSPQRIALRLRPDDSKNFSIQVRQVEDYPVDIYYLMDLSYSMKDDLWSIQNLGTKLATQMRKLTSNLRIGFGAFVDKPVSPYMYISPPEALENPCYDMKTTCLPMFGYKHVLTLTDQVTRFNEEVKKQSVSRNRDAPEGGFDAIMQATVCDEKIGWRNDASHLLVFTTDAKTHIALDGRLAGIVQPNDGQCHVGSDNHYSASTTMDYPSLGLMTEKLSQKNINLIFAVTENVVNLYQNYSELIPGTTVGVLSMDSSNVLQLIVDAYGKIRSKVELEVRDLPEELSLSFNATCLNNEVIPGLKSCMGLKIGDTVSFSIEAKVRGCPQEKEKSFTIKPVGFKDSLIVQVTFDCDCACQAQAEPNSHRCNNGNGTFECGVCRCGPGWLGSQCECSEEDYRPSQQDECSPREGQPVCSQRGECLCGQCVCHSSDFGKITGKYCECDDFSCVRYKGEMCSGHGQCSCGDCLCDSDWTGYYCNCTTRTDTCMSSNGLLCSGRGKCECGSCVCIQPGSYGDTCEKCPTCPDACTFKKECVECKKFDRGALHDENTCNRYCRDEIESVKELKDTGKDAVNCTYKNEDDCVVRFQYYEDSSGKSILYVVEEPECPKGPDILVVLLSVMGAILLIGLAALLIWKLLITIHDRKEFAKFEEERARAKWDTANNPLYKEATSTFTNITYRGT

The pIC50 is the negative decadic logarithm of the IC50, by convention in mol/L. Consider `COc1ccc(S(=O)(=O)N[C@@H](CNC(=O)CCCOc2ccc(C(=N)N)cc2)C(=O)O)cc1` [Example 57, (2S)-3-(4-(4-amidinophenoxy)butanoylamino)-2-(4-methoxy)benzenesulfonylaminopropanoic Acid], for which the pIC50 in the experiment on human fibronectin is 5.92; in the experiment on platelet aggregation [1] (setting [3]), 7.74; on human fibrinogen, 8.15; with human vitronectin, 5.12.
For `N=C(N)c1ccc(OCCCC(=O)NC[C@H](NS(=O)(=O)c2ccccc2)C(=O)O)cc1` [Example 58, (2S)-3-(4-(4-amidinophenoxy)butanoylamino)-2-benzenesulfonylaminopropanoicAcid] the same measures were 6.21, 7.02, 7.62 and 5.10.
For `N=C(N)c1ccc(OCCCC(=O)NC[C@H](NS(=O)(=O)c2ccccc2[N+](=O)[O-])C(=O)O)cc1` [Example 59] the same measures were 6.21, 7.47, 7.92 and 5.48.
Turning to `N=C(N)c1ccc(CCCCC(=O)NC[C@H](NS(=O)(=O)c2ccccc2)C(=O)O)cc1` [Example 67], the pIC50 in the experiment on platelet aggregation [1] (setting [3]) is 7.49. Further, the inhibition in vivo at 0.1 mg/kg in the experiment with platelet aggregation [2] (setting [4]) stood at 88%; with platelet aggregation [2] (setting [5]), 71%; in the experiment with platelet aggregation [2] (setting [6]), 69%; with platelet aggregation [2] (setting [7]), 31%; in the experiment on platelet aggregation [2] (setting [8]), 10%.
Regarding `N=C(N)c1ccc(C(=O)N2CCCC(C(=O)NC[C@H](NS(=O)(=O)c3ccccc3)C(=O)O)C2)cc1` (stereo partly drawn) [Example 95, (2S)-3-((1-(4-amidinobenzoyl)-3-piperidyl)carbonylamino)-2-benzenesulfonylaminopropanoic Acid], the results for the pIC50 with human fibronectin, at human fibrinogen and in the experiment on human vitronectin were 7.48, 8.08 and 6.20, respectively. Also, the inhibition in vivo at 0.1 mg/kg with platelet aggregation [2] (setting [4]) was found to be 49%; with platelet aggregation [2] (setting [5]), 49%; in the experiment with platelet aggregation [2] (setting [6]) it was 31%; with platelet aggregation [2] (setting [7]) it was 12%; with platelet aggregation [2] (setting [8]) it was 18%.
The compound `CNC(=N)c1ccc(C(=O)NCCC(=O)NC[C@H](NS(=O)(=O)c2ccccc2)C(=O)O)cc1` [Example 98, (2S)-2-benzenesulfonylamino-3-(3-(4-(N-methylamidino)benzoylamino)propanoylamino)propanoic Acid] had a pIC50 in the experiment on platelet aggregation [1] (setting [9]) of 7.24. Besides, the inhibition in vivo at 0.1 mg/kg is 94% in the experiment with platelet aggregation [2] (setting [4]); 100% with platelet aggregation [2] (setting [5]); 100% with platelet aggregation [2] (setting [6]); 100% in the experiment with platelet aggregation [2] (setting [7]); 100% with platelet aggregation [2] (setting [8]).
`CCNC(=N)c1ccc(C(=O)NCCC(=O)NC[C@H](NS(=O)(=O)c2ccccc2)C(=O)O)cc1` [Example 99, (2S)-2-benzenesulfonylamino-3-(3-(4-(N-ethylamidino)benzoylamino)propanoylamino)propanoic Acid]: the pIC50 in the experiment with platelet aggregation [1] (setting [9]) is 7.77. Further, the inhibition in vivo at 0.1 mg/kg with platelet aggregation [2] (setting [4]), in the experiment on platelet aggregation [2] (setting [5]), with platelet aggregation [2] (setting [6]), with platelet aggregation [2] (setting [7]) and in the experiment on platelet aggregation [2] (setting [8]) was 100% throughout.
In the experiment with platelet aggregation [1] (setting [9]), `CN(C)C(=N)c1ccc(C(=O)NCCC(=O)NC[C@H](NS(=O)(=O)c2ccccc2)C(=O)O)cc1` [Example 100, (2S)-2-benzenesulfonylamino-3-(3-(4-(N,N-dimethylamidino)benzoylamino)propanoylamino)propanoic Acid] gave a pIC50 of 7.55. In addition, the inhibition in vivo at 0.1 mg/kg in the experiment on platelet aggregation [2] (setting [4]), with platelet aggregation [2] (setting [5]), with platelet aggregation [2] (setting [6]), in the experiment on platelet aggregation [2] (setting [7]) and in the experiment with platelet aggregation [2] (setting [8]) was 100% throughout.
On to `CNC(=N)c1ccc(OCCCC(=O)NC[C@H](NS(=O)(=O)c2ccccc2)C(=O)O)cc1` [Example 107, (2S)-2-benzenesulfonylamino-3-(4-(4-(N-methylamidino)phenoxy)butanoylamino)propanoic Acid], for which the pIC50 with platelet aggregation [1] (setting [9]) was 7.54.
Compound `CCNC(=N)c1ccc(OCCCC(=O)NC[C@H](NS(=O)(=O)c2ccccc2)C(=O)O)cc1` [Example 108, (2S)-2-benzenesulfonylamino-3-(4-(4-(N-ethylamidino)phenoxy)butanoylamino)propanoic Acid] showed a pIC50 with platelet aggregation [1] (setting [9]) of 7.29.
Consider `N=C1NCCc2cc(OCCCC(=O)NC[C@H](NS(=O)(=O)c3ccccc3)C(=O)O)ccc21` [Example 111, (2S)-2-benzenesulfonylamino-3-(4-(6-(1-imino-1,2,3,4-tetrahydroisoquinolyl)oxy)butanoylamino)propanoic Acid], for which, in the experiment with platelet aggregation [1] (setting [9]), the pIC50 was 7.39.
On the same count and under the same terms, for `CC(C)(C)C(=O)OCOC(=O)[C@H](CNC(=O)CCCOc1ccc(C(=N)N)cc1)NS(=O)(=O)c1ccccc1` [Example 113, (2S)-3-(4-(4-amidinophenoxy)butanoylamino)-2-benzenesulfonylaminopropanoicAcid Pivaloyloxymethyl Ester] the value was 7.32.
The same measure, in the same setting: for `NC(=O)c1ccc(C(=O)NCCC(=O)NC[C@H](NS(=O)(=O)c2ccccc2N)C(=O)O)cc1` [Example 114, (2S)-2-(2-amino)benzenesulfonylamino-3-(3-(4-carbamoylbenzoylamino)propanoylamino)propanoic Acid] the value was 7.46; for `CCc1ccc(S(=O)(=O)N[C@@H](CNC(=O)CCNC(=O)c2ccc(C(=N)N)cc2)C(=O)OCOC(=O)C(C)(C)C)cc1` [Example 116, (2S)-3-(3-(4-amidinobenzoylamino)propanoylamino)-2-(4-ethyl)benzenesulfonylaminopropanoic Acid Pivaloyloxymethyl Ester], 6.99.
